According to patent EP4745135A1 (Gluetacs Therapeutics (Shanghai) Co., Ltd., priority 2023, dated 2025):

Legend:
[1] = target: T1, IKZF3 (Homo sapiens, UniProt Q96SW2+Q9UKT9); assay: Western blot, degradation of substrate protein in hPBMCs; format: cell-based
T1 construct: effects of the compounds of the present disclosure on the expression of target proteins in cells; endogenous in cells; host or cells: human PBMCs (Milecell Biotechnologies)

[2] = target: T2, IKZF1 (Homo sapiens, UniProt Q13422+Q96SW2); assay: as above; format: cell-based
T2 construct: effects of the compounds of the present disclosure on the expression of target proteins in cells; endogenous in cells; host or cells: human PBMCs (Milecell Biotechnologies)

[3] = target: T3, WEE1 (Homo sapiens, UniProt P30291+Q96SW2); assay: as above; format: cell-based
T3 construct: effects of the compounds of the present disclosure on the expression of target proteins in cells; endogenous in cells; host or cells: human PBMCs (Milecell Biotechnologies)

[4] = target: T4, CK1α (Homo sapiens, UniProt P48729+Q96SW2); assay: as above; format: cell-based
T4 construct: effects of the compounds of the present disclosure on the expression of target proteins in cells; endogenous in cells; host or cells: human PBMCs (Milecell Biotechnologies)

[5] = target: T5, IKZF2 (Homo sapiens, UniProt Q96SW2+Q9UKS7); assay: as above; format: cell-based
T5 construct: effects of the compounds of the present disclosure on the expression of target proteins in cells; endogenous in cells; host or cells: human PBMCs (Milecell Biotechnologies)

[6] = system: Human myeloid monocytic leukemia cell (MV-4-11); assay: Tumor cell proliferation inhibition (CellTiter-Meiluncell luminescent cell viability assay); settings: MV4-11, 96 h; for inhibition at 0.01 µM: read-out: Inhibition Rate at 10 nM (%); for inhibition at 0.5 µM: read-out: Inhibition Rate at 500 nM (%)
Procedure: (§1) The tumor cells used herein were cultured in a cell culture medium listed in table 2 at 37°C in an incubator with 5% CO2. Prior to experimentation, all cell lines used were correctly identified by STR profiling, and tested negative for mycoplasma contamination using a mycoplasma detection kit through routine screenings.
(§2) The IC50 values of the compounds of the present disclosure (including the compounds in Table 1 and Examples) were determined using the CellTiter-Meiluncell Luminescent Cell Viability Assay Kit from Dalian Meilun Biotech Co., Ltd. The detailed procedure is as follows: Tumor cells were seeded in 96-well cell culture plates at the densities specified in Table 3. On the following day, the test compounds of the present disclosure were subjected to serial dilution. The dilution can be performed according to one of the following two methods: • (1) The first dilution method: The test compounds of the present disclosure (including the compounds in Table 1 and Examples) were subjected to 5-fold serial dilutions starting from a highest concentration of 2000 µM, resulting in a total of 9 concentrations from high to low (2000, 400, 80, 16, 3.2, 0.64, 0.128, 0.0256, 0.00512 µM). Subsequently, 0.5 µL of the test compound dilution was transferred into the 96-well plate containing the cells, with each well containing 100 µL of cell culture medium. […] Into the 96-well plate, the diluted test compounds and corresponding detection reagents were added, resulting in final test compound concentrations of 500 nM and 10 nM, respectively. The experimental procedure is described below using the diluted 2 µM test compound as an example.
(§3) 0.5 µL of the aforementioned diluted compound of the present disclosure (including the compounds in Table 1 and Examples) was added to the seeded cells in 100 µL of medium, yielding a final test compound concentration of 10 nM. After the cells were treated with the compounds of the present disclosure for a specified period, the cell viability assay reagent was added to the culture medium according to the kit's instructions to determine cell viability. […] All controls were treated using the same procedure as the compounds of the present disclosure. The growth inhibition curves for the compounds of the present disclosure were plotted using Prism GraphPad software, and the IC50 values were calculated therefrom.

[7] = system: GSPT1; assay: Western blot, degradation of substrate protein in hPBMCs; format: cell-based, Human
[8] = system: Human multiple myeloma cell (MM.1S); assay: Tumor cell proliferation inhibition (CellTiter-Meiluncell luminescent cell viability assay); settings: for inhibition at 0.01 µM / inhibition at 0.5 µM: Homo sapiens, MM1.S, 96 h; for inhibition at 0.01 µM: read-out: Inhibition Rate at 10 nM (%); for inhibition at 0.5 µM: read-out: Inhibition Rate at 500 nM (%)
[9] = system: Human multiple myeloma peripheral blood B lymphocyte cell (RPMI-8226); assay: as above; settings: RPMI-8226, 96 h; for inhibition at 0.01 µM: read-out: Inhibition Rate at 10 nM (%); for inhibition at 0.5 µM: read-out: Inhibition Rate at 500 nM (%)
Procedure: as §1, §2, §3

[10] = target: T6, human Cereblon WT GST-tagged protein (Homo sapiens, UniProt Q96SW2); assay: CRBN-binding affinity, HTRF (CEREBLON BINDING kit); settings: for inhibition at 0.5 µM: read-out: Inhibition Rate at 0.5 µM (%); for inhibition at 2 µM: read-out: Inhibition Rate at 2 µM (%)
T6 construct: purchased CISBIO 64BDCRBNPEH

[11] = system: Human acute T lymphocytic leukemia cell (Molt4); assay: Tumor cell proliferation inhibition (CellTiter-Meiluncell luminescent cell viability assay); settings: MOLT-4, 96 h
[12] = 24 hours treatment, compounds at 50 nM and 500 nM (concentration behind the class not stated)
[13] = Western blot, 24 hours of compound treatment, compounds tested at 50 nM and 500 nM (concentration for the table not stated)

T4 sequence (P48729 whole entry): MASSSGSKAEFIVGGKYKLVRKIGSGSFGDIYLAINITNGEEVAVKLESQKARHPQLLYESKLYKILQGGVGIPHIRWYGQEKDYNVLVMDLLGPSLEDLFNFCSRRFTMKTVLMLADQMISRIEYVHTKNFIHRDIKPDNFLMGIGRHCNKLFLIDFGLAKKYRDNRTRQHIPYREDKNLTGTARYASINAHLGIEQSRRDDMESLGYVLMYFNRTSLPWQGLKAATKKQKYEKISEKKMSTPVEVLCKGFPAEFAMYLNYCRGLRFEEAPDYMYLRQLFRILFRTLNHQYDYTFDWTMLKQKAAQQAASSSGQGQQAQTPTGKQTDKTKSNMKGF
T4 sequence (Q96SW2 whole entry): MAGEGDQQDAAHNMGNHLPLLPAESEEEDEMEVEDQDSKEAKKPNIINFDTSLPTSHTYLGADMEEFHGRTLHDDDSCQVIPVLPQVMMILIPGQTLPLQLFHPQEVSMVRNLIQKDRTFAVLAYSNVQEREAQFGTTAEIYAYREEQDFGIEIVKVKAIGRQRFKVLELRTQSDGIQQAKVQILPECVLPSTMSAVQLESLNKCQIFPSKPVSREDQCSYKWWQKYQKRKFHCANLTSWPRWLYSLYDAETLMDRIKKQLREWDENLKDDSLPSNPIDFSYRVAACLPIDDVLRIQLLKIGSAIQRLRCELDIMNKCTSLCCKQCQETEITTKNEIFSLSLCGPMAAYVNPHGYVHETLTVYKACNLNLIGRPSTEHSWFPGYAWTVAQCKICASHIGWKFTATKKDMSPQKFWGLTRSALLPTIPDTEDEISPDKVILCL
T4 sequence (Q16531 whole entry partner): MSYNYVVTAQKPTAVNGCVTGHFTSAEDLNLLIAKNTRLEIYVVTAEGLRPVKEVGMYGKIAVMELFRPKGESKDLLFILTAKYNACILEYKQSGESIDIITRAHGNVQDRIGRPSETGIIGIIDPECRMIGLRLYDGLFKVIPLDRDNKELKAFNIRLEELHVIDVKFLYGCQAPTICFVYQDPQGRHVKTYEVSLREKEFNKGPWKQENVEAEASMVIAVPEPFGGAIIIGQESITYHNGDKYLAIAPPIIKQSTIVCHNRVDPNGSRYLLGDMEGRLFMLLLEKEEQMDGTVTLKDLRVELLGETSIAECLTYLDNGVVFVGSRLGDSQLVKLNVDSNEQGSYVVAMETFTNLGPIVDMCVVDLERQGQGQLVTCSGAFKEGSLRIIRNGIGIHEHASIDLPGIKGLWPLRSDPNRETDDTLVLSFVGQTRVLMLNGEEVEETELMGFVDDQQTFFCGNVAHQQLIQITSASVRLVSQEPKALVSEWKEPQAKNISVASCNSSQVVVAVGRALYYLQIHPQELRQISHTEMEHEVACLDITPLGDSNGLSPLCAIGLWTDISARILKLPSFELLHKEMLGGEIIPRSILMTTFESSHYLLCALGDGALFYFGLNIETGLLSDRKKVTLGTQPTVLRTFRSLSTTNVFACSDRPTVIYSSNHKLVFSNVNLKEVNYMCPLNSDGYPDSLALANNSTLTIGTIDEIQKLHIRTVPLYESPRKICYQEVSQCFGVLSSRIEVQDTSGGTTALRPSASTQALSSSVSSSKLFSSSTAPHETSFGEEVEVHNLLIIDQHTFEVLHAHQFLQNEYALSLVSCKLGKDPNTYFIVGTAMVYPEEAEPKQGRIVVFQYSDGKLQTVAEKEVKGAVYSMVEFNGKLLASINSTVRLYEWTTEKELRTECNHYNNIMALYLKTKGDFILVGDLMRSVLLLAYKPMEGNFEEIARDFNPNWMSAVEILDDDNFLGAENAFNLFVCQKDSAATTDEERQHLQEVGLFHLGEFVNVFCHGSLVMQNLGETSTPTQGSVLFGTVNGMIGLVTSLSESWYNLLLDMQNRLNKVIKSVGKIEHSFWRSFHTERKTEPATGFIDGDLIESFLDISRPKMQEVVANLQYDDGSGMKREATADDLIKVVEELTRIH
T2 sequence (Q13422 whole entry): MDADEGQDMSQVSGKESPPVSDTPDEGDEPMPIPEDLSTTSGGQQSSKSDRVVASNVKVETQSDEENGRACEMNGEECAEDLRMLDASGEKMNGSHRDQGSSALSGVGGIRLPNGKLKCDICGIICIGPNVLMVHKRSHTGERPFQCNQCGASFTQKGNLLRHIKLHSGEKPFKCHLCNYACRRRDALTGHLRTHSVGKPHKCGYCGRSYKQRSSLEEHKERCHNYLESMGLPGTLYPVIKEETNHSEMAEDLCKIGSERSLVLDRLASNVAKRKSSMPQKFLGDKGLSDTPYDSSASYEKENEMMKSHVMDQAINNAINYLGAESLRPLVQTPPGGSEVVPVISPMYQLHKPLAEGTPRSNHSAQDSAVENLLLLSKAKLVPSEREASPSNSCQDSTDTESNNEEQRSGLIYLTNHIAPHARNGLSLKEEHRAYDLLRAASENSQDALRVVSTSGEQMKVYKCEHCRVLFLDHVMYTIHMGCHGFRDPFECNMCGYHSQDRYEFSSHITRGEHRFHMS
T2 sequence (Q96SW2 whole entry): as the sequence (Q96SW2 whole entry) above
T2 sequence (Q16531 whole entry partner): as the sequence (Q16531 whole entry partner) above
T1 sequence (Q9UKT9 whole entry): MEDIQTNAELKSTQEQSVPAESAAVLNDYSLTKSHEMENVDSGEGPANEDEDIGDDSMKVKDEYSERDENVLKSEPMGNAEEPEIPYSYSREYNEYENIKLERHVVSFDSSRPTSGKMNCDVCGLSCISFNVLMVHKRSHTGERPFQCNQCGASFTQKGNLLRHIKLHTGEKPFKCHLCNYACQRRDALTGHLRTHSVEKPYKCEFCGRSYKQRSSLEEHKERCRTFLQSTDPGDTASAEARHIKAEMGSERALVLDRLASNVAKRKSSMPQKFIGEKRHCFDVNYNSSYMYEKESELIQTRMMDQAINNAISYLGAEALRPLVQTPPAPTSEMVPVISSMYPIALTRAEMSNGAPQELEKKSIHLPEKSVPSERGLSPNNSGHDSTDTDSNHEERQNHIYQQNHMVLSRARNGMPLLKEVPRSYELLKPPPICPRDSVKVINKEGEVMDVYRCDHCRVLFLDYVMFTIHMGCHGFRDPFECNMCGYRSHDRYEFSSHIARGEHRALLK
T1 sequence (Q96SW2 whole entry): as the sequence (Q96SW2 whole entry) above
T1 sequence (Q16531 whole entry partner): as the sequence (Q16531 whole entry partner) above
T3 sequence (P30291 whole entry): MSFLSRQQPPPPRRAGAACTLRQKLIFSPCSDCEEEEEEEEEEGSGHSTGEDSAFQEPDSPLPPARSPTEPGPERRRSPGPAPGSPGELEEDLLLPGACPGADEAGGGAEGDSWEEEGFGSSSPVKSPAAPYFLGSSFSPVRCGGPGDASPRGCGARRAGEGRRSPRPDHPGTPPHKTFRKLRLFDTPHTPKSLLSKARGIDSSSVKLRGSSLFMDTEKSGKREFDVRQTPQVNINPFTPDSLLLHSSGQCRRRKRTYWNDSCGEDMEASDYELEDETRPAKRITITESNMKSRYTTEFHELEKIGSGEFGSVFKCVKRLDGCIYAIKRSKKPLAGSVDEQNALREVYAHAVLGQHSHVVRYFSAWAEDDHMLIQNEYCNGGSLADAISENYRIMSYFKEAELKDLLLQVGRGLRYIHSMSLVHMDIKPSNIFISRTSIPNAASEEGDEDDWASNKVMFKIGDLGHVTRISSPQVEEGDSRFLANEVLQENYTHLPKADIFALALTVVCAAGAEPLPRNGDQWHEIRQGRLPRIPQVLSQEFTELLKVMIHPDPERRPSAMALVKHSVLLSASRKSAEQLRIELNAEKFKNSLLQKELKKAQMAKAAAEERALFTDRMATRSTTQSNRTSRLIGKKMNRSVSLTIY
T3 sequence (Q96SW2 whole entry): as the sequence (Q96SW2 whole entry) above
T3 sequence (Q16531 whole entry partner): as the sequence (Q16531 whole entry partner) above
T5 sequence (Q9UKS7 whole entry): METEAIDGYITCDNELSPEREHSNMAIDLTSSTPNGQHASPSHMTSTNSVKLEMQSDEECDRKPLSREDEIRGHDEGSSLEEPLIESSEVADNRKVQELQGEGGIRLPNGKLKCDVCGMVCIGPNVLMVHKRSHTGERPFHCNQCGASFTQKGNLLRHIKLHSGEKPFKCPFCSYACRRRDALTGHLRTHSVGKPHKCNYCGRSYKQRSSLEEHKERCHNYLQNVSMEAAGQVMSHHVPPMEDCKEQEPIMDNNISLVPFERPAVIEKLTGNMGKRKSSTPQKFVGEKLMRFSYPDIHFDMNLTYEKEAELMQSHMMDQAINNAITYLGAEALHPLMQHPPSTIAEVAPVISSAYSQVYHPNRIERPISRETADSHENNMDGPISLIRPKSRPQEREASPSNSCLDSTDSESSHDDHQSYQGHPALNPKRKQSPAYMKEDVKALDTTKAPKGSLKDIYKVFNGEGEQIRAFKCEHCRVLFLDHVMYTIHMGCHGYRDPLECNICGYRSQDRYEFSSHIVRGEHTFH
T5 sequence (Q96SW2 whole entry): as the sequence (Q96SW2 whole entry) above
T5 sequence (Q16531 whole entry partner): as the sequence (Q16531 whole entry partner) above
T6 sequence (Q96SW2 whole entry): as the sequence (Q96SW2 whole entry) above

Compound | inhibition at 0.5 µM [10] | inhibition at 2 µM [10] | inhibition at 0.01 µM [6] | inhibition at 0.5 µM [6] | inhibition at 0.01 µM [8] | inhibition at 0.5 µM [8] | inhibition at 0.01 µM [9] | inhibition at 0.5 µM [9] | IKZF3 substrate protein remaining % [1, 13] | IKZF 1 substrate protein remaining % [2, 13] | Wee1 substrate protein remaining % [3, 13] | CK1α substrate protein remaining % [4, 13] | IKZF2 substrate protein remaining % [5, 13] | GSPT1 substrate protein remaining % [7, 13] | further results
N#Cc1ccc(N2CCN(Cc3ccc(COc4cccc5c4CN([C@H]4CCC(=O)NC4=O)C5=S)cc3)CC2)c(F)c1 [GT-05957, (S)-4-(4-(4-(((2-(2,6-dioxopiperidin-3-yl)-1-thioxoisoindolin-4-yl)oxy)methyl)benzyl)piperazin-1-yl)-3-fluorobenzonitrile] | – | – | 25 to 30% | 40 to 60% | 80 to 100% | 80 to 100% | 50 to 60% | 60 to 70% | – | – | – | – | – | – | IKZF3 substrate protein remaining % [1, 12]: A (0% ≤ substrate protein remaining % ≤ 80%); IKZF 1 substrate protein remaining % [2, 12]: A (0% ≤ substrate protein remaining % ≤ 80%); Wee1 substrate protein remaining % [3, 12]: B (80%< substrate protein remaining %≤ 100%); CK1α substrate protein remaining % [4, 12]: B (80%< substrate protein remaining %≤ 100%); IKZF2 substrate protein remaining % [5, 12]: A (0% ≤ substrate protein remaining % ≤ 80%); GSPT1 substrate protein remaining % [7, 12]: A (0% ≤ substrate protein remaining % ≤ 80%); IC50 ([10]; CRBN binding, HTRF, 3 hours at room temperature, read-out: HTRF IC50): 100 to 500 nM
O=C1CCC(N2Cc3c(CN4CCN(C(c5ccc(F)cc5)c5ccc(F)cc5)CC4)cccc3C2=S)C(=O)N1 (stereo not drawn) [GT-08202, 3-(4-((4-(bis(4-fluorophenyl)methyl)piperazin-1-yl)methyl)-1-thioxoisoindolin-2-yl)piperidine-2,6-dione] | 30 to 40% | 60 to 80% | 30 to 40% | 40 to 60% | – | – | 20 to 30% | 40 to 50% | A (0% ≤ substrate protein remaining % ≤ 80%) | A (0% ≤ substrate protein remaining % ≤ 80%) | A (0% ≤ substrate protein remaining % ≤ 80%) | B (80%< substrate protein remaining %≤ 100%) | A (0% ≤ substrate protein remaining % ≤ 80%) | A (0% ≤ substrate protein remaining % ≤ 80%) | –
O=C1CCC(N2Cc3c(CN4C[C@@H]5C[C@H]4CN5C(c4ccccc4)c4ccccc4)cccc3C2=S)C(=O)N1 (stereo partly drawn) [GT-08207, 3-(4-(((1 S,4S)-5-benzhydryl-2,5-diazabicyclo[2.2.1]heptan-2-yl)methyl)-1-thioxoisoindolin-2-yl)piperidine-2,6-dione] | 40 to 53% | 60 to 80% | – | – | – | – | 50 to 60% | 60 to 70% | B (80%< substrate protein remaining %≤ 100%) | A (0% ≤ substrate protein remaining % ≤ 80%) | A (0% ≤ substrate protein remaining % ≤ 80%) | B (80%< substrate protein remaining %≤ 100%) | B (80%< substrate protein remaining %≤ 100%) | A (0% ≤ substrate protein remaining % ≤ 80%) | –
O=C1CCC(N2Cc3c(CN4CCN(CC5=C(c6ccc(F)cc6)CCCC5)CC4)cccc3C2=S)C(=O)N1 (stereo not drawn) [GT-08293, 3-(4-((4-((4'-fluoro-3,4,5,6-tetrahydro-[1,1'-biphenyl]-2-yl)methyl)piperazin-1-yl)methyl)-1-thioxoisoindolin-2-yl)piperidine-2,6-dione] | 30 to 40% | 60 to 80% | – | – | – | – | 20 to 30% | 40 to 50% | B (80%< substrate protein remaining %≤ 100%) | B (80%< substrate protein remaining %≤ 100%) | A (0% ≤ substrate protein remaining % ≤ 80%) | B (80%< substrate protein remaining %≤ 100%) | B (80%< substrate protein remaining %≤ 100%) | B (80%< substrate protein remaining %≤ 100%) | –
O=C1CCC(N2Cc3c(CN4CCN(C(=O)C5=C(c6ccc(F)cc6)CCCC5)CC4)cccc3C2=S)C(=O)N1 (stereo not drawn) [GT-08294, 3-(4-((4-(4'-fluoro-3,4,5,6-tetrahydro-[1,1'-biphenyl]-2-carbonyl)piperazin-1-yl)methyl)-1-thioxoisoindolin-2-yl)piperidine-2,6-dione] | 30 to 40% | 80 to 100% | 40 to 60% | 60 to 80% | – | – | 20 to 30% | 40 to 50% | B (80%< substrate protein remaining %≤ 100%) | B (80%< substrate protein remaining %≤ 100%) | B (80%< substrate protein remaining %≤ 100%) | A (0% ≤ substrate protein remaining % ≤ 80%) | B (80%< substrate protein remaining %≤ 100%) | B (80%< substrate protein remaining %≤ 100%) | –

Now from value to compound, other results behind:

inhibition at 0.5 µM [10] | inhibition at 2 µM [10] | Compound | inhibition at 0.01 µM [6] | inhibition at 0.5 µM [6] | inhibition at 0.01 µM [8] | inhibition at 0.5 µM [8] | inhibition at 0.01 µM [9] | inhibition at 0.5 µM [9] | IKZF3 substrate protein remaining % [1, 13] | IKZF 1 substrate protein remaining % [2, 13] | Wee1 substrate protein remaining % [3, 13] | CK1α substrate protein remaining % [4, 13] | IKZF2 substrate protein remaining % [5, 13] | GSPT1 substrate protein remaining % [7, 13] | further results
53 to 60% | 80 to 100% | O=C1CCC(N2Cc3cc(CN4CCN(c5cccc(Br)c5)CC4)ccc3C2=S)C(=O)N1 (stereo not drawn) [GT-08238, 3-(5-((4-(3-bromophenyl)piperazin-1-yl)methyl)-1-thioxoisoindolin-2-yl)piperidine-2,6-dione] | 5 to 10% | 80 to 100% | 70 to 80% | 70 to 80% | 20 to 30% | 50 to 60% | B (80%< substrate protein remaining %≤ 100%) | B (80%< substrate protein remaining %≤ 100%) | B (80%< substrate protein remaining %≤ 100%) | B (80%< substrate protein remaining %≤ 100%) | B (80%< substrate protein remaining %≤ 100%) | A (0% ≤ substrate protein remaining % ≤ 80%) | inhibition at 0.01 µM ([11]; read-out: Inhibition Rate at 10 nM (%)): 30 to 40%; inhibition at 0.5 µM ([11]; read-out: Inhibition Rate at 500 nM (%)): 80 to 100%
40 to 53% | 80 to 100% | O=C1CCC(N2Cc3c(CN4CCN(c5cccc6sccc56)CC4)cccc3C2=S)C(=O)N1 (stereo not drawn) [GT-08364, 3-(4-((4-(benzo[b]thiophen-4-yl)piperazin-1-yl)methyl)-1-thioxoisoindolin-2-yl)piperidine-2,6-dione] | – | – | 40 to 50% | – | 20 to 30% | 40 to 50% | B (80%< substrate protein remaining %≤ 100%) | B (80%< substrate protein remaining %≤ 100%) | A (0% ≤ substrate protein remaining % ≤ 80%) | B (80%< substrate protein remaining %≤ 100%) | B (80%< substrate protein remaining %≤ 100%) | A (0% ≤ substrate protein remaining % ≤ 80%) | Inhibition Rate at 500 nM (%) ([8]; MM.1S, 500 nM, 96 hours): la8
30 to 40% | 80 to 100% | O=C1CCC(N2Cc3cc(CN4CCN(c5cc(Cl)cc(Cl)c5)CC4)ccc3C2=S)C(=O)N1 (stereo not drawn) [GT-08624, 3-(5-((4-(3,5-dichlorophenyl)piperazin-1-yl)methyl)-1-thioxoisoindolin-2-yl)piperidine-2,6-dione] | 18 to 25% | 80 to 100% | 20 to 30% | 80 to 100% | 10 to 20% | 60 to 70% | B (80%< substrate protein remaining %≤ 100%) | B (80%< substrate protein remaining %≤ 100%) | B (80%< substrate protein remaining %≤ 100%) | B (80%< substrate protein remaining %≤ 100%) | B (80%< substrate protein remaining %≤ 100%) | A (0% ≤ substrate protein remaining % ≤ 80%) | –
